Consider 4 compounds from patent publication US10053459B2, “Life-extending agent, life extension method using the life-extending agent, novel dual oxidase activator, method for activating dual oxidase, production of life-extending agent, and production of dual oxidase activator” (National University Corporation Nagoya University, priority 2014, dated 2018).

The nature of data set [1]: Stability of test substance in the petri dishes used in the life test (LC analysis). Format: physicochemical. To be noted: for Test substance (%) / Main impurities: in petri dish medium used in the life test. On the procedure:
The analysis of PQQ sodium salt was conducted under analysis conditions given below. PQQ concentration and purity were measured by high-performance liquid chromatography under conditions shown below.
Apparatus: high-performance liquid chromatography, LC-2010 manufactured by Shimadzu Corp.
Column: YMC-Pack ODS-A, 150×4.6 mm I.D.
Measurement temperature: 40° C.
Detection: absorbance at 259 nm
Eluent: 30 mM acetic acid/70 mM ammonium acetate (pH 5.1)
The reduced pyrroloquinoline quinone, the acetone adduct of pyrroloquinoline quinone, and the IPQ trisodium salt in the petri dishes used in the life test were evaluated for their stability by liquid chromatography analysis (LC analysis). The liquid chromatography analysis can be conducted according to those described above.

In data set [2] the test system is nematode C. elegans, wild-type. The experiment in a line: Life test (life assay) of nematode on medium containing the test substance. Format: in vivo. To be noted: for average life / life-extending effect: 5.0 mM in medium vs 0 mM, FIGS. 3 and 4. On the procedure: Pyrroloquinoline quinone disodium salt was mixed with water and sodium hydroxide to obtain test sample concentrate 1 of pH 6. The content of the pyrroloquinoline quinone disodium salt in the test sample concentrate 1 was adjusted to 30 mM. The test sample concentrate 1 was autoclave-sterilized for use. […] Meanwhile, to each E. coli solution cultured in an LB medium (Luria-Bertani broth), the test sample concentrate 1 was added so as to attain the same concentration as that of the pyrroloquinoline quinone disodium salt in the medium of each of the prepared petri dishes. 100 μL of the obtained E. coli solution was seeded in a circular pattern of approximately 2 cm in diameter to the center of each petri dish. […] The petri dish was wrapped in Parafilm during storage. […] These individuals were excluded from the data. […] Petri dishes having media containing different concentrations of the acetone adduct were prepared by the same operation as in Example 1 except that the amount of the test sample concentrate 2 added was adjusted such that the concentration of the acetone adduct in each medium solution was 0 mM (Comparative Example 2) and 5.0 mM (Example 5). […] Petri dishes having media containing different concentrations of the IPQ trisodium salt were prepared by the same operation as in Example 1 except that the amount of the test sample concentrate 3 added was adjusted such that the concentration of the IPQ trisodium salt in each medium solution was 0 mM (Comparative Example 3) and 5.0 mM (Comparative Example 4).

Data set [3] deals with nematode variant pmk-3 (ok-169). On the procedure:
(§1) 7.2 g of NaCl, 48 g of agar, 6 g of Bactopeptone (manufactured by Becton, Dickinson and Company), and water (2.4 L including the amount of the sample concentrate to be added) were added into each flask. The flask was autoclaved at 120° C. for 20 minutes or longer and then cooled until the surface temperature of the flask became approximately 45° C. To this flask, 60 mL of a 1 M potassium phosphate solution, 2.4 mL of a 1 M CaCl2 solution, 2.4 mL of a 1 M MgSO4 solution, 2.4 mL of a 750 mg/150 mL cholesterol solution, and a predetermined amount of the 30 mM test sample concentrate 1 were added to obtain a medium solution. The amount of the test sample concentrate 1 added was adjusted such that the concentration of the pyrroloquinoline quinone disodium salt in the medium solution was 0 mM (Comparative Example 1), 0.1 mM (Example 1), 1.0 mM (Example 2), 3.0 mM (Example 3), and 5.0 mM (Example 4). The flask was further cooled until the surface temperature of the flask reached 40 to 41° C. 14 mL of the medium solution was added to each polystyrene petri dish having a diameter of 6 cm and cooled to room temperature to prepare petri dishes having media containing different concentrations of the pyrroloquinoline quinone disodium salt.
(§2) In order to synchronize the ages of nematode individuals at the start of the experiment, parent nematodes were allowed to lay eggs and then removed, and individuals evenly grown for a given period of time after hatching were used. Specifically, five adults (individuals under incubation) were selected and transferred to each petri dish, which was then left at 20° C. for 2 hours (lay period), and the parent nematodes were removed. Then, the petri dish was left at 20° C. for 72 hours. The life test was started when the number of individuals per petri dish reached 10 to 20.
(§3) Grown-up individuals were used in the life assay.
(§4) The individuals in each petri dish were transferred to a fresh petri dish every day. Information on date, the number of survivors, the number of deaths, the number of missing individuals, etc., was recorded in a score sheet. The petri dish was wrapped in Parafilm during storage. An individual was judged as being dead when no spontaneous behavior was seen and no response was found even by vibration stimulus or contact stimulus. Nematodes are often missing because of running out of the petri dish, being dried at the wall, crawling out from a gap in the medium, for example. Therefore, the number of missing individuals was recorded and excluded from the data. Individuals that died of the eclosion of their children in their bodies, which occurs frequently in certain variants, were recorded as BAG, and individuals that died of hernia were recorded as rupture.
(§5) Nematode variants can be used to determine how PQQ works. A plurality of petri dishes were prepared using the medium containing 5 mM PQQ prepared in Example 4. The life extension test was conducted in the same way as in Example 1 using the prepared petri dishes and each variant shown in Table 2. The results obtained without the addition of PQQ are indicated as 100 for a relative effect.

Data set [4] deals with nematode variant skn-1 (zu67). As to the method: as §1, §2, §3, §4, §5
For data set [5], the system named is nematode variant nsy-1 (ky400). As to the method:
as §1, §2, §3, §4, §5

The subject of data set [6] is nematode variant bli-3 (im-10), reduced activity of dual oxidase. On the procedure:
as §1, §2, §3, §4, §5

Data set [7] deals with nematode variant age-1 (hx546). On the procedure:
as §1, §2, §3, §4, §5

In data set [8] the test system is nematode variant bli-3 (e767), reduced activity of dual oxidase. As to the method: as §1, §2, §3, §4, §5
The subject of data set [9] is nematode variant daf-2 (e1370). On the procedure: as §1, §2, §3, §4, §5
Data set [10] concerns nematode variant gas-1 (fc2). The experiment in a line: Life test using variant gas-1 (fc2). The class given is in vivo, C. elegans.
Source text: as §3
(§6) The petri dish was wrapped in Parafilm during storage. […] These individuals were excluded from the data.

For data set [11], the system named is nematode line OB265bli-3 (e767); imEx144[bli-3genomic clone]. The experiment in a line: Life test using line OB265 bli-3 (e767); imEx144[bli-3genomic clone]. The class given is in vivo, C. elegans.
Source text: as §3, §6

The nature of data set [12]: Stability of reduced PQQ in agar medium, preservation test (LC and UV spectrum analysis). Format: physicochemical. The note with it: 30° C. for 3 days. On the procedure: Ultraviolet-visible spectra were measured using a UV spectrometer UV1800 manufactured by Shimadzu Corp.
Reduced PQQ was added to sterile water to prepare a 30 mM dispersion. This dispersion was added so as to make 5 mM in the composition for evaluation described above to prepare a petri dish. The preservation test was conducted at 30° C. for 3 days, followed by LC analysis and UV spectrum analysis. The reduced formed is converted to PQQ under neutral conditions. Therefore, the reduced state can be confirmed by detecting PQQ by the LC analysis and measuring the UV spectrum of a solution thereof in dimethyl sulfoxide. As a result of confirming the state of the reduced PQQ in an agar medium in this way, 86% of all PQQs maintained the reduced state.

[13] abbreviates: 5 mM PQQ, result without PQQ = 100.

Structures can show the parent of a compound that is named as a salt.

On to `O=C(O)c1cc2c(=O)c3ncn4c(C(=O)O)cc(C(=O)O)c(c2[nH]1)c34` [IPQ, trisodium salt of imidazoloquinone, reference compound], for which the “Test substance (%)” value in data set [1] is “IPQ100%”. Besides, the “average life / life-extending effect” value in [2] is recorded as “small life-extending effect”.

As for `O=C(O)c1cc(C(=O)O)c2c(n1)C(=O)C(=O)c1cc(C(=O)O)[nH]c1-2` [PQQ, Pyrroloquinoline quinone disodium salt], the “Average life after becoming adult” value in [3] (pmk-3 (ok-169), 5 mM PQQ in medium) was determined as 17.9 ± 0.4 days; in data set [4] (skn-1 (zu67), 5 mM PQQ in medium), 12.8 ± 0.2 days; in [5] (nsy-1 (ky400), 5 mM PQQ in medium), 16.0 ± 0.3 days; in data set [6] (5 mM PQQ in medium), 11.7 ± 0.4 days; in data set [7] (5 mM PQQ in medium) it was 23.4 ± 0.9 days; in data set [8] (5 mM PQQ in medium) it was 13.5 ± 0.4 days. Besides, the “Average life after becoming adult” value in data set [9] (5 mM PQQ in medium) turned out to be 34.6 ± 0.9 days; in data set [2] (wild-type, 5 mM PQQ in medium), 15.0 ± 0.6 days; in data set [10] (5 mM PQQ in medium) it was 14.7 ± 0.9 days; in data set [11] (OB265bli-3 (e767), imEx144[bli-3genomic clone], 5 mM PQQ in medium), 19.8 ± 0.3 days. In addition, the Relative value is 90 in [3] (pmk-3 (ok-169), 5 mM PQQ, result without PQQ = 100); 96 in data set [4] (skn-1 (zu67), 5 mM PQQ, result without PQQ = 100); 104 in [5] (nsy-1 (ky400), 5 mM PQQ, result without PQQ = 100); 99 in [6] (setting [13]); 123 in [7] (setting [13]); 87 in data set [8] (setting [13]). Besides, the Relative value in data set [9] (setting [13]) came to 121; in [2] (wild-type, 5 mM PQQ, result without PQQ = 100), 140; in data set [10] (setting [13]) it was 111; in data set [11] (OB265bli-3 (e767), imEx144[bli-3genomic clone], 5 mM PQQ, result without PQQ = 100), 122. Besides, the “life-extending effect (in words)” value in data set [3] (pmk-3 variant, 5 mM PQQ) is given as “strongly suppressed”; in data set [4] (skn-1 gene variant, 5 mM PQQ), “strongly suppressed”; in data set [5] (nsy-1 variant, 5 mM PQQ), “strongly suppressed”; in data set [11] (bli-3 gene-deficient line transfected with the bli-3 gene, Example 15, 5 mM PQQ), “extended”. Moreover, the “average life (survival rate vs rearing days after becoming adults)” value in data set [2] (0.1, 1.0, 3.0, 5.0 mM in medium vs 0 mM, FIGS. 1 and 2) was “tends to extend the average life”.

As for `O=C(O)c1cc(C(=O)O)c2c(n1)c(O)c(O)c1cc(C(=O)O)[nH]c12` [Reduced pyrroloquinoline quinone, reduced pyrroloquinoline quinone], the Main impurities entry is “IPQ” in data set [1] and “PQQ” in [12] (5 mM in agar medium petri dish). Moreover, the “Test substance (%)” value in data set [1] is “Reduced pyrroloquinoline quinone 65%”; in data set [12] (5 mM in agar medium petri dish, LC and UV analysis) it was “Reduced pyrroloquinoline quinone 85%”. Moreover, the “share of all PQQs that maintained the reduced state” value in [12] (5 mM in agar medium, LC and UV spectrum analysis) was 86%.

`CC(=O)CC1(O)C(=O)c2cc(C(=O)O)[nH]c2-c2c(C(=O)O)cc(C(=O)O)nc21` (stereo not drawn) [acetone adduct of pyrroloquinoline quinone]: in data set [1], the Main impurities result is “PQQ” and the “Test substance (%)” value is 92%. Also, the “detection of IPQ (formed by reaction with amino acids of the medium)” value in data set [1] (petri dish medium with peptone) was “not detected”. For the same compound, the “average life / life-extending effect” value in [2] is reported as “tends to extend the average life”.
